From patent US4355179A, “Radioactive nuclide labeled propiophenone compounds” (Burroughs Wellcome Co., priority 1980, dated 1982) come the findings set out here.

In experiment [1] the test system is anti-compound 2 sera, anti-compound 3 sera. In words: RIA of bupropion using 125I-labeled competitors with anti-compound 2 sera and anti-compound 3 sera. To be noted: with anti-compound 2 or anti-compound 3 sera. It is filed as binding. The procedure:
(§1) Samples of six standard solutions of bupropion in blank plasma having concentrations of 0.39 to 50 ng/ml) are pipetted (0.1 ml each) in duplicate into 12×75 mm plastic tubes. Duplicate non-specific binding (no antibody) and maximum binding tubes (no unlabeled bupropion) receive 0.1 ml blank plasma. Spiked plasma controls at several concentrations of (e.g., 1.0, 10.0, and 100 ng/ml) and plasma samples for assay (diluted into the standard range with blank plasma if necessary) are assayed in duplicate. After being placed in an ice bath, all tubes receive (in order) 0.2 ml ^3 H bupropion (416 pg. containing approximately 10^4 cpm) and 0.7 ml anti-bupropion serum (raised to a ring-functionalized immunogen according to the present invention) (at pre-determined dilutions such that approximately 40% of the ^3 H bupropion added is bound), both in assay buffer (0.05 M phosphate-bufferedisotonic saline, containing 0.01 M EDTA and 0.1% gelatin, pH 7.0). Non-specific binding tubes receive 0.7 ml assay buffer.) Following incubation either at 25° C. for 2 hours or overnight at 4° C., bound and free ^3 H bupropion are separated by incubation for 10 min at 0° C. with 0.5 ml ice-cold dextran-coated charcoal solution (0.25% dextran, 5 mg/ml charcoal, in assay buffer) followed by centrifugation for 10 minutes at 4° C. […] The supernatants, containing antibody-bound ^3 H bupropion are carefully decanted into liquid scintillation cocktail for quantitation of ^3 H. After counts (minus average non-specific binding cpm) are expressed as percentages of average maximum binding cpm, bupropion concentrations in plasma samples and spiked controls are read from a standard curve (log concentration vs percent average maximum binding).
RIA's have been run according to the method of Example X utilizing ^125 I labeled bupropion competitors of the present invention in conjunction with antisera obtained following immunization with immunogens of the present invention. […] Following the ethanol precipitation of antibody-bound ^125 I-bupropion competitor at equilibrium, ^125 I in the protein pellets was quantified.

Experiment [2] relates to anti-compound 1 sera. As to the kind of experiment: RIA of bupropion using 125I-labeled competitor with anti-compound 1 sera. It counts as binding. To be noted: compound 6 with anti-compound 1 sera, compared with the other RIA's. The protocol:
as §1, with “7.0).” for “7.0). Non-specific binding tubes receive 0.7 ml assay buffer.) Following incubation either at 25° C. for 2 hours or overnight at 4° C., bound and free ^3 H bupropion are separated by incubation for 10 min at 0° C. with 0.5 ml ice-cold dextran-coated charcoal solution (0.25% dextran, 5 mg/ml charcoal, in assay buffer) followed by centrifugation for 10 minutes at 4° C.”, “binding). […]” for “binding).”

Experiment [3] deals with antisera raised by a bupropion variant-carrier material conjugate. In words: Competition with radiolabeled bupropion or radiolabeled competitor for binding to antisera. To be noted: against radiolabeled bupropion or radiolabeled competitor.

SMILES strings stand for the structures.

In the case of `CC(NC(C)(C)C)C(=O)c1ccc(OCC(=O)NCCc2ccc(O)c([125I])c2)c(Cl)c1` (stereo not drawn) [Compound 7, α-t-Butylamino-3-chloro-4-carbomethoxypropiophenone-^125 I-tyramine amide], in experiment [1], the “RIA sensitivity relative to the compound 10 (3H bupropion) assay system” value was “approximately equal”.

In the case of `CC(NC(C)(C)C)C(=NOCC(=O)NCCc1ccc(O)c([125I])c1)c1cccc(Cl)c1` (stereo not drawn) [Compound 6, α-t-Butylamino-3-chloropropiophenone-carboxymethyloxime-^125 I-tyramine amide], the RIA sensitivity entry in experiment [2] was “least sensitive”.

As to `CC(NC(C)(C)C)C(=O)c1ccc(CCCOC(=O)CCC(=O)NCCc2ccc(O)c([125I])c2)c(Cl)c1` (stereo not drawn) [Compound 8, α-t-butylamino-3-chloro-4-γ-hydroxypropylpropiophenonehemisuccinate-^125 I-tyramine amide], the “RIA sensitivity relative to the compound 10 (3H bupropion) assay system” value in experiment [1] is reported as “approximately equal”.

Turning to `CC(NC(C)(C)C)C(=O)c1ccc(O)c([125I])c1` (stereo not drawn) [Compound 9, ^125 I-α-t-Butylamino-3-iodo-4-hydroxypropiophenone], the “RIA sensitivity relative to the compound 10 (3H bupropion) assay system” value in experiment [1] was “approximately ten times more sensitive”.

Regarding `CC(NC(C)(C)C)C(=O)c1cccc(Cl)c1` (racemic) [bupropion, (±)-2-tert-butylamino-3'-chloropropiophenone], the “competition for binding to antisera” value in experiment [3] is listed as “successfully compete”.
